In general, melting point refers to the temperature, or range, at which the solid turns liquid.

`CC(C)n1c(N)nnc1S` returned a melting point of 189 to 191 °C. `Nc1cccc(Cl)c1N1CCOCC1` gave a melting point of 154 to 156 °C. The value for `Cc1ccn(-c2ccc(Cl)nn2)n1` was 169 to 171 °C; that for `NS(=O)(=O)CCC(=O)O` was 111 to 113 °C; that for `N#Cc1c(N)sc2c1CCCCC2` was 103 to 115 °C.

As to `c1ccc(-n2cccn2)nc1`, the melting point lay in the range of 37 to 39 °C.

On to `Oc1ccc(OC2CCCC2)cc1`, for which the melting point lay within 50 to 52 °C. The value for `O=c1[nH]c(S)nc2ccsc12` was 364 to 366 °C. The value for `CS(=O)(=O)Cc1cccc(S(=O)(=O)Cl)c1` was 142 to 144 °C. The same measure for `CCOC(=O)c1cc(S(C)(=O)=O)ccc1N`: 130 to 132 °C; for `O=C(O)C1CC(=O)N(c2ccc(S(=O)(=O)Cl)cc2)C1` (stereo not drawn): 157 to 159 °C. In turn, `COc1ncc(C(=O)O)cn1` registered a melting point of 219 to 221 °C.

Turning to `OC1CCc2ccc(F)cc21` (stereo not drawn), the melting point was in the range of 41 to 43 °C. The same measure for `O=c1[nH]c(N2CCOCC2)cc2ccccc12`: 212 to 214 °C; for `NC(=S)NCc1ccccc1`: 163 to 165 °C. The same measure for `CSCc1ccc(C(=O)O)cc1`: 145 to 147 °C. The value for `Nc1ccccc1C(=O)NCc1cccnc1` was 119 to 121 °C. `CC1(C)CCCCC1CC(=O)O` (stereo not drawn) had a melting point of 41 to 43 °C. The same measure for `Nc1cccc(CS(=O)c2ccccc2)c1` (stereo not drawn): 133 to 135 °C; for `Sc1nnc(-c2cccs2)n1-c1ccccc1`: 269 to 271 °C; for `CC(C)n1[nH]c(-c2ccccc2)cc1=N`: 83 to 85 °C. The same measure for `CC(=O)NC1CCCN(C(=O)CCl)C1` (stereo not drawn): 110 to 112 °C; for `O=C(O)c1cc(Cl)[nH]c(=O)c1`: 249 to 251 °C.

`O=C(CCSc1ccccc1)c1ccc(F)cc1` returned a melting point of 111 to 113 °C. The same measure for `CC1CCc2c(sc3nc(S)nc(S)c23)C1` (stereo not drawn): 337 to 339 °C; for `CN(C)S(=O)(=O)c1cccc(NC(=O)CCl)c1`: 74 to 78 °C. The value for `Cc1ccc(Oc2cccc(N(C)C)c2)c(N)c1` was 64 to 66 °C. The same measure for `COCCn1nc(C)c(C(C)=O)c1C`: 31 to 33 °C; for `O=C(O)C=Cc1ccc(Oc2cccnc2)c(F)c1`: 202 to 204 °C; for `O=C(O)c1cc(/C=C/c2cccnc2)nc2ccc(Br)cc12`: 335 to 337 °C.

For the compound `CCC(C)NS(=O)(=O)c1cccc(C(=O)O)c1` (stereo not drawn), the melting point was in the range of 155 to 157 °C. The same measure for `O=C(CCl)N(Cc1ccc(Cl)cc1)C12CC3CC(CC(C3)C1)C2`: 112 to 114 °C. The value for `O=C1CCCCCN1CO` was 63 to 67 °C; that for `O=C(O)CCc1nc2sc3c(c2c(=O)[nH]1)CCCC3` was 140 to 142 °C; that for `C/C(=N\Nc1ccc(Cl)c(C(=O)O)c1)c1ccc(Br)cc1` was 180 to 182 °C. The same measure for `O=C1NCC2(CCCCC2)O1`: 96 to 98 °C. In turn, `COC(=O)Nc1ccc(N)cc1F` had a melting point of 72 to 74 °C. On to `CN1Cc2ccc(N)cc2C1`, for which the melting point is 61 to 63 °C. The same measure for `NC(=O)c1cccc(C(=O)O)n1`: 249 to 251 °C; for `NCC(O)c1ccco1` (stereo not drawn): 80 to 82 °C. The same measure for `O=C(CCl)NC(c1ccccc1)c1nccs1` (stereo not drawn): 108 to 110 °C; for `O=[N+]([O-])c1cc(Br)ccc1I`: 84 to 86 °C. The value for `Cc1cccc(-c2cc(N)n(Cc3ccccc3)n2)c1` was 79 to 81 °C. Compound `O=c1ccc(Cl)n[nH]1` yielded a melting point of 138 to 140 °C. For `CC(C)(CO)NCCO`, the melting point lay within 73 to 75 °C. The same measure for `Nc1cc(N2CCOCC2)c(F)cc1[N+](=O)[O-]`: 185 to 187 °C; for `O=C(O)c1cccc(S(=O)(=O)NC2CC2)c1`: 188 to 192 °C.

On to `Cc1ccc(-n2nc(C(=O)O)c3ccccc3c2=O)cc1Cl`, for which the melting point fell in the range of 227 to 229 °C. The compound `C/C(=N\O)c1sc(C(C)(C)C)nc1C` had a melting point of 117 to 119 °C. The same measure for `Nc1snc2ccc([N+](=O)[O-])cc12`: 198 to 200 °C; for `CC(C)(C)c1cccc2c1OCC2=O`: 69 to 71 °C; for `CN(C)S(=O)(=O)c1ccc(N)cc1`: 119 to 162 °C.

`O=C(O)c1nn(-c2ccccc2)c2c1CCCCC2` came in with a melting point of 171 to 173 °C. `CCOc1ccc(S(N)(=O)=O)cc1` registered a melting point of 152 to 154 °C. `CN1C(=O)c2ccc(C(=O)O)cc2C1=O` registered a melting point of 173 to 175 °C.

The compound `NC(=O)c1cncc(C(=O)O)c1` came in with a melting point of 269 to 271 °C. The same measure for `Cc1[nH]c(C(=O)O)c(C)c1C(=O)O`: 244 to 246 °C; for `Cc1cc(Br)ccc1NC(=O)CCN`: 77 to 79 °C; for `COc1ccc(C(=O)O)cc1OCc1ccncc1`: 201 to 203 °C. The same measure for `Cc1ccc(S(=O)(=O)NCC(=O)O)cc1C`: 123 to 125 °C.

Regarding `O=C(O)CNS(=O)(=O)c1ccccc1F`, the melting point was in the range of 170 to 172 °C. The value for `NCC(O)CN1CCc2ccccc2C1` (stereo not drawn) was 59 to 61 °C. The value for `Nc1ncc(Cc2cc(Cl)ccc2Cl)s1` was 110 to 114 °C. The value for `FC(F)(F)c1ccc2nnc(S)n2c1` was 120 to 122 °C; that for `ClCc1ncc(-c2ccc(Br)cc2)o1` was 80 to 82 °C; that for `CN(C)C(=O)c1ccc(Cl)c(N)c1` was 76 to 78 °C. `C1C2CC3CC1CC(C2)C31CO1` (stereo not drawn) showed a melting point of 180 to 182 °C.

In turn, `COC(=O)NC(Cc1ccccc1)C(=O)O` (stereo not drawn) had a melting point of 75 to 77 °C. The compound `Cn1c(-c2ccccc2)c(C(=O)CCl)c2ccccc21` registered a melting point of 146 to 148 °C. The value for `O=C(O)CCSCc1nc2ccccc2c(=O)[nH]1` was 193 to 195 °C; that for `Nc1ccc2c(c1)CCN2C(=O)c1cccnc1` was 181 to 183 °C; that for `NNC(=O)c1c(Cl)cccc1Cl` was 180 to 182 °C. In turn, `O=C(O)c1ccc(F)c(S)c1` displayed a melting point of 163 to 165 °C. With `CC1(C)CCC(C)(O)CC1`, the melting point lay in the range of 49 to 51 °C. The value for `O=C(O)CC1=NN(c2ncc(C(F)(F)F)cc2Cl)C(=O)C1` was 173 to 175 °C. The value for `Cc1cc(C=O)c(C)n1CCN1CCOCC1` was 79 to 81 °C; that for `O=C(Nc1nc2ccccc2s1)OCC(F)(F)F` was 224 to 226 °C.

The compound `Cc1ccc(S(=O)(=O)N2CCCCC2)cc1S(=O)(=O)Cl` displayed a melting point of 154 to 156 °C.

`O=C(Nc1cocn1)OCC(F)(F)F` displayed a melting point of 131 to 133 °C. The same measure for `CCCCc1ccc(NC2=NCCCS2)cc1`: 70 to 72 °C; for `Cc1n[nH]c(C(=O)O)c1C`: 288 to 290 °C.

Compound `O=C1OC(O)C(Cl)=C1Cl` (stereo not drawn) yielded a melting point of 179 to 182 °C. The value for `NS(=O)(=O)c1ccc(C(=O)O)cc1Br` was 201 to 203 °C. In turn, `Cc1n[nH]c(C)c1CO` gave a melting point of 178 to 180 °C.

On to `Nc1ccn(CCc2ccccn2)n1`, for which the melting point is 69 to 71 °C. Consider `COC(=O)c1cnc(-c2ccccc2)s1`, for which the melting point lay within 107 to 109 °C.

`NS(=O)(=O)c1ccc(F)c(C(=O)O)c1` showed a melting point of 186 to 188 °C. The value for `Nc1ccc(Oc2ccc(F)cc2)nc1` was 47 to 49 °C.
